Source: US10058538B2, “Compositions comprising substituted benzofuroquinolizine and α2-adrenergic agonists” (VETCARE OY, priority 2014, dated 2018)

Assays:
dogs [1] = settings: medetomidine 20 μg/kg IM or 10 μg/kg IV, compared with baseline values; cited from earlier work
beagle dogs = assay: Composite sedation score (0-20) in dogs, medetomidine with or without MK-467 IM, reversal with atipamezole (Example 2); format: in vivo, dog; settings: FIG. 3
Experimental: Atipamezole (100 μg/kg IM) was administered at 30 min (arrow).
The study was designed as a prospective, randomized, experimental cross-over study.
Each dog (n=7) was treated twice with a 14-days washout period: • Medetomidine (20 μg/kg) at 0 min, followed by Atipamezole (100 μg/kg) at 30 min • Medetomidine (20 μg/kg)+MK-467 (400 μg/kg) at 0 min, followed by Atipamezole (100 μg/kg) at 30 min
Medetomidine and MK-467 were mixed in the same syringe and administered intramuscularly.
Sedation was scored by a veterinarian blinded for treatment with the following score:
Composite Sedation Score (0-20)
• 0 Standing • 1 Standing but staggers • 2 Sternal head up • 3 Sternal head down • 4 Lateral head down 2. […] Position of the Eye (0-2) • 0 Middle • 2 Turned down 4. Jaw and Tongue Relaxation (0-4) • 0 Normal, opens the jaws but resists manipulation of the tongue • 1 Bites jaws together • 2 Opens the jaws but strong resistance when tongue is pulled • 3 Slight resistance when tongue is pulled • 4 No resistance 5. Resistance to Positioning in Lateral Recumbency (0-3) • 0 Normal • 1 Turns back to sternal position • 2 Some resistance but stays in lateral recumbency • 3 No resistance or the position is already lateral 6. […]

[2] = by reduction in heart rate and cardiac output after medetomidine administration; cited from earlier work
dogs [3] = settings: dexmedetomidine 10 μg/kg IV, MK-467 250, 500 and 750 μg/kg, especially with higher doses; cited from earlier work

## Cc1cccc(C(C)c2cnc[nH]2)c1C (racemic) [medetomidine, (RS)-4-[1-(2,3-dimethylphenyl)ethyl]-3H-imidazole]
Dogs [1]
  heart rate (HR), mixed-venous partial pressure of oxygen (Pvo(2)) and cardiac index (CI): significantly lower
  mean arterial blood pressure (MAP), systemic vascular resistance (SVR) and oxygen extraction ratio (ER): significantly higher
Beagle dogs; medetomidine 20 μg/kg IM alone or with MK-467 400 μg/kg in the same syringe, atipamezole 100 μg/kg IM at 30 min
  resedation after atipamezole reversal: resedation seen
[2]
  decrease of global Do2 (oxygen delivery): at least 50%

## CCC1(c2cnc[nH]2)Cc2ccccc2C1 [atipamezole]
Beagle dogs; atipamezole 100 μg/kg IM at 30 min after medetomidine 20 μg/kg IM alone or with MK-467 400 μg/kg
  reversal of medetomidine induced sedation: reversed

## Cc1cccc([C@H](C)c2c[nH]cn2)c1C [dexmedetomidine, (S)-4-[1-(2,3-Dimethylphenyl)ethyl]-3H-imidazole]
Dogs [3]
  BIS-values (bispectral index): decreased
